Source: patent US7795218B2, “ADP-ribosyl transferase fusion variant proteins” (priority 2003, dated 2010)

Legend:
Format in all cases: cell-based, human
HUVEC [1] = test: HUVEC proliferation (Alamar blue); conditions: up to 100 μg/mL (or μM), 24 hr or 72 hr
Procedure: FIG. 32 illustrates that SEQ ID NO: 10 affects HUVEC proliferation at high concentration, wherein HUVEC were plated in 96 wells (collagen 1-coated) and incubated during 24 h or 72 with 0 to 100 μg/mL (or μM) of SEQ ID NO: 10, Fasudil or Tranilast, cells from 4 h and 24 h were washed out and replenished with fresh media containing no test compounds and left until 72 hours, and at the end of treatment (72 hours) Alamar blue was added, incubated for 4 hours and fluorescence was measured. Proliferation is represented in a graph as a percentage of that from untreated cells (0 μg/mL)±S.D. and represents 2 independent studies analyzed in triplicate;
Given that SEQ ID NO: 10 efficiently ribosylates RhoA and therefore inhibits its activity under these conditions, it appears that the proliferation of HUVEC in this system, along with this part of the angiogenic sequence, proceeds independently of RhoA activity. In contrast, HUVEC proliferation seems to depend on Rho kinase activity as well as on the activity of those targets, possibly including protein kinase C, blocked by Tranilast.

HUVEC [2] = test: VEGF-dependent HUVEC migration (transwell); conditions: 20 hours
Procedure: FIG. 33 illustrates that SEQ ID NO: 10 can modify VEGF-dependent HUVEC migration, wherein in (A) HUVEC were seeded into 24-well-fibronectin-coated transwell chambers containing SEQ ID NO: 10, Fasudil or Tranilast, migration was stimulated for 20 hours with 10 ng/mL of VEGF with or without test compound, migrated cells were measured by fluorescence using Calcein-AM as a probe, and in (B) HUVEC were pre-treated for 24 hours with 50 μg/mL of SEQ ID NO: 10 prior to the start of migration (results are expressed as a percentage of that from untreated cells stimulated with VEGF±SEM and represent 4 independent experiments analyzed in duplicate; symbols * and *** represent, respectively, significant (p<0.05) and highly significant (p<0.001) difference from untreated cells+VEGF (Control+VEGF); symbol # # # represents significant difference (p<0.001) from untreated cells−VEGF (Control−VEGF));
Another cellular function and part of the angiogenic process that is known to be perturbed by Rho GTPase inhibition is endothelial cell migration. In order to evaluate the effect of SEQ ID NO: 10 on HUVEC migration, cells are seeded in the upper side of a transwell insert along with the desired test compounds, and migration is then induced with 10 ng/mL of VEGF at the bottom side of the insert. After 20 hours of migration, cells that pass through the membrane of the insert are labeled with calcein AM probe and detected via fluorescence. […].

HUVEC [3] = test: HUVEC tube formation on ECmatrix; conditions: 50 μM
Procedure: FIG. 31 illustrates that SEQ ID NO: 10 decreases tube formation in HUVEC, wherein HUVEC were seeded on solidified ECmatrix™ without (Control) or with 10 μg/mL or 50 μg/mL of SEQ ID NO: 10 or the angiogenesis inhibitor Tranilast, cells were also incubated with 10 μM or 50 μM of the ROCK inhibitor Fasudil, capillary-like structures were visualized between 6 h to 20 h incubation, and wherein in (A) photographs were taken under phase contrast inverted microscope at 40× magnification and (B) quantification of tube length was reported as percentage of the length from untreated cells SEM (photographs and quantification are representative of at least 2 independent experiments analyzed in triplicate; symbols * and ** represent respectively significant (p<0.05) and highly significant (p<0.01) difference from untreated cells);
Referring to FIG. 31, to evaluate the importance of the signalling pathway Rho-Rock in angiogenesis, Transilat (10 μg/ml and 50 μg/ml) is used as a positive control. Transilat is known to block one of the principal angiogenesis routes i.e. the VEGF pathway. The binding of VEGF to VEGF-R stimulates tyrosine auto-phosphorylation of one of the receptors which initiates a signalling pathway, in part through PKC. Tranilast acts by inhibiting VEGF dependent PKC activation. […]

Question: Which HUVEC proliferation (HUVEC [1]) does the source give for O=S(=O)(c1cccc2cnccc12)N1CCCNCC1 [Fasudil] here?
Answer: Its HUVEC proliferation is “significant (p<0.01) reductions in HUVEC cell proliferation”.

Question: And the “decrease of VEGF-induced HUVEC migration” value (HUVEC [2]; 50 μM)?
Answer: The value was 66%.

Question: What about the “decrease of tube formation” value (HUVEC [3]) of the same compound?
Answer: The value was 58%.

Question: With COc1ccc(/C=C/C(=O)Nc2ccccc2C(=O)O)cc1OC [Tranilast] as the compound, how does the “decrease of VEGF-induced HUVEC migration” value (HUVEC [2]; 10 μg/mL) read?
Answer: The value was 45%.

Question: What about the “decrease of VEGF-induced HUVEC migration” value (HUVEC [2]; 50 μg/mL) of the same compound?
Answer: The value was 72%.
